Test system: 4T1 tumors
Experiment: Combination with anti-PD-L1 in syngeneic murine 4T1 model
Format: in vivo, mice
Settings: syngeneic 4T1 model; B102 15 mg/kg or B302 50 mg/kg every 2 days; anti-PD-L1 100 μg every 5 days; intraperitoneal
Text: MDA-MB-436 cells (5 × 10^6) were suspended in PBS and Matrigel (Corning) at a 1:1 ratio and orthotopically injected into the fat pads of 6- to 7-week-old female NOD-Prkdc^scid Il2rg^em1Smoc (M-NSG) mice from the Shanghai Model Organisms Center, Inc. MDA-MB-231 cells (5 × 10^6) were suspended in PBS orthotopically injected into the fat pads of 6- to 7-week-old female BALB/c nude mice from the Shanghai Model Organisms Center, Inc. 4T1 cells (1 × 10^6) were suspended in PBS and injected into the fat pads of 6- to 7-week-old male BALB/c mice from GemPharmatech Co., Ltd. […] For the MMTV-PyMT mice, fourteen 6-week-old female mice were randomly divided into two groups, and no blinding was performed. […] For the combination of B102 or B302 and anti-PD-L1 studies, the mice were randomly divided into four treatment groups without blinding: (1) vehicle; (2) B102 (15 mg/kg, every 2 days) or B302 (50 mg/kg, every 2 days); (3) anti-PD-L1 antibodies (100 μg, dissolved in PBS, every 5 days, Atezolizumab, Clone No.: 2B11D11, Shanghai Lollane biological technology Co., Ltd., Shanghai, China); or (4) combination of B102 or B302 and anti-PD-L1, all treatment via an intraperitoneal injection. Tumor size was monitored with a digital caliper, and tumor volume was calculated using the following equation: volume = (length × width^2)/2. […]

anti-PD-L1: anti-PD-L1 antibodies (Atezolizumab, Clone No.: 2B11D11), immune checkpoint blockade
tumor growth: restricted tumor growth
